Measurements: patent US10966961B2, “Pyrazole derivatives as bromodomain inhibitors” (GLAXOSMITHKLINE INTELLECTUAL PROPERTY (NO.2) LIMITED, priority 2017, dated 2021)

Columns and labels:
BRD4 BD2 = target: T1, BRD4 BD2 (Homo sapiens, UniProt O60885, Y97A); test: BRD4 BD2 TR-FRET competition assay; format: binding; details: for IC50: BRD4 BD2 TR-FRET, read-out: pIC50 in the BRD4 BD2 assay (converted)
T1 construct: BRD4 (1-477) (Y97A) and (Y390A); made in house; host or cells: E. coli (pET15b vector)
Protocol: Time Resolved Fluorescence Resonance Energy Transfer (TR-FRET) assay
Bromodomain binding was assessed utilising a time resolved fluorescent resonance energy transfer (TR-FRET) competition assay. To enable this approach a known, high affinity, pan-BET interacting small molecule was labelled with Alexa Fluor® 647, which is a far-red-fluorescent dye (Reference Compound X). Reference Compound X acts as a reporter of bromodomain binding and is the acceptor fluorophore component of the TR-FRET pair. Europium chelate, conjugated to an anti-6*His antibody, was utilised as the donor fluorophore in the TR-FRET pair. […] A TR-FRET signal is generated when the donor and acceptor fluorophores are in close proximity, between 20-80 Å, which is enabled in this assay by binding of Reference Compound X to the bromodomain protein.
Assay Principle: In order to generate a TR-FRET signal, donor fluorophore is excited by a laser at A337 nm, which subsequently leads to emission at λ618 nm. If the acceptor fluorophore is in close proximity then energy transfer can occur, which leads to emission of Alexa Fluor® 647 at λ665 nm. In the presence of competitor compound, Reference Compound X can be displaced from binding to the bromodomain. If displacement occurs, the acceptor fluorophore is no longer in proximity to the donor fluorophore, which prevents fluorescent energy transfer and, subsequently, a loss of Alexa Fluor® 647 emission at λ665 nm.
(§1) The competition of the compounds of formula (I) with Reference Compound X for binding to the BET family (BRD2, BRD3, BRD4 and BRDT) was assessed using protein truncates spanning both bromodomain 1 (BD1) and bromodomain 2 (BD2). In order to monitor differential binding to either BD1 or BD2, single residue mutations of key tyrosines to alanine were made in the acetyl lysine binding pockets. To validate this approach, a double residue mutant tandem domain protein was produced for each of the BET family members. Utilising a Fluorescence Polarisation approach, binding affinities for each of the single and double mutants for Reference Compound X were determined.
Final purification was completed by Superdex 200 prep grade size exclusion column. Purified protein was stored at −80° C. in 20 mM HEPES pH 7.5 and 100 mM NaCl. […] Protocol for Bromodomain BRD2, 3, 4 and T, BD1+BD2 mutant TR-FRET competition assays:
All assay components were dissolved in an assay buffer composing of 50 mM HEPES pH7.4, 50 mM NaCl, 5% Glycerol, 1 mM DTT and 1 mM CHAPS. Reference Compound X was diluted, in assay buffer containing 20 nM single mutant, tandem bromodomain protein, to a concentration equivalent to 2*Kd for this bromodomain. The solution containing bromodomain and Reference Compound X was added to dose response dilutions of test compound or DMSO vehicle (a maximum of 0.5% DMSO is used in this assay) in Greiner 384 well black low volume microtitre plates and subsequently incubated for 30 minutes at rt. An equal volume of 3 nM of anti-6*His Europium chelate was added to all wells, followed by a further 30 minute incubation at rt. TR-FRET was detected using a Perkin Elmer Multimode plate reader, by exciting the donor fluorophore at λ337 nm and subsequently, after a delay of 50 μsecs, measuring emission of the donor and acceptor fluorophores at λ615 nm and λ665 nm, respectively. In order to control these assays, 16 replicates each of uninhibited (DMSO vehicle) and inhibited (10*IC50 concentrations of Example 11 of WO 2011/054846A1) TR-FRET assays were included on every microtitre plate.
cA four parameter curve fit of the following form was then applied: y=a+((b−a)/(1+(10^x/10^c)^d)
Where ‘a’ is the minimum, ‘H’ is the Hill slope, ‘c’ is the pIC50 and ‘d’ is the maximum.
All compounds (Examples) were each tested in the BRD4 BD1 and the BRD4 BD2 TR-FRET assays essentially as described above. Those of skill in the art will recognise that in vitro binding assays and cell-based assays for functional activity are subject to experimental variability.

[1] = test system: double residue mutant tandem domain BET proteins (BRD2, BRD3, BRD4 and BRDT); test: Fluorescence Polarisation binding of Reference Compound X to mutant tandem BET proteins; design: species or system Human; details: double mutant vs non mutated tandem BET proteins
Protocol: as §1, with “determined. […] The affinities of the single mutated bromdomain tandem proteins for Reference Compound X were equi-potent with the corresponding non-mutated BET protein. […] In the TR-FRET competition assay, Reference Compound X is used at a concentration that is equivalent to the Kd for the non-mutated bromodomain, which ensures that no binding at the mutated bromodomain is detected. […]” for “determined.”

CNC(=O)c1cc(C(=O)N[C@H]2[C@@H]3COC[C@@H]32)n([C@@H](C)c2ccccc2)n1 [Example 1, N^5-((1R,5S,6r)-3-Oxabicyclo[3.1.0]hexan-6-yl)-N^3-methyl-1-((S)-1-phenylethyl)-1H-pyrazole-3,5-dicarboxamide]
IC50 (BRD4 BD2): 63.1 nM
selectivity for BRD4 BD2 over BRD4 BD1 (BRD4 BD2; BRD4 BD2 pIC50 − BRD4 BD1 pIC50, in at least one of the TR-FRET assays): 2.8 log units

CNC(=O)c1cc(C(=O)N[C@H]2[C@@H]3C[C@H](O)C[C@@H]32)n([C@H](C)c2cccc(C(F)(F)F)c2)n1 [Example 238]
IC50 (BRD4 BD2): 1000 to 10000 nM

CNC(=O)c1cc(C(=O)NC2CC2)nn1Cc1cccc2[nH]ccc12 [Example 234]
IC50 (BRD4 BD2): 1000 to 10000 nM

CNC(=O)c1cc(C(=O)NC2CC2)nn1Cc1ccc2[nH]ccc2c1 [Example 233]
IC50 (BRD4 BD2): 1000 to 10000 nM

CNC(=O)c1cc(C(=O)NC2CC2)n(Cc2ccc(C#N)cc2)n1 [Example 102, 1-(4-Cyanobenzyl)-N^5-cyclopropyl-N^3-methyl-1H-pyrazole-3,5-dicarboxamide]
IC50 (BRD4 BD2): 1000 to 10000 nM

CNC(=O)c1cc(C(=O)N[C@H]2C[C@@H]2C)n(C(C)c2ccnc3c2ccn3S(=O)(=O)c2ccc(C)cc2)n1 (stereo partly drawn) [Example 135, N^3-Methyl-N^5-((1S,2S)-2-methylcyclopropyl)-1-(1-(1-tosyl-1H-pyrrolo[2,3-b]pyridin-4-yl)ethyl)-1H-pyrazole-3,5-dicarboxamide]
IC50 (BRD4 BD2): 1000 to 10000 nM

CNC(=O)c1cc(C(=O)Nc2nnc(C(F)(F)F)s2)n([C@@H](C)c2ccccc2)n1 [Example 240]
IC50 (BRD4 BD2): 1000 to 10000 nM

CNC(=O)c1cc(C(=O)NC2[C@H]3C[C@H](O)C[C@@H]23)n([C@H](C)c2cccc(C(F)(F)F)c2)n1 (stereo partly drawn) [Example 241]
IC50 (BRD4 BD2): 1000 to 10000 nM

CNC(=O)c1cc(C(=O)N[C@H]2[C@@H]3COC[C@@H]32)n([C@H](C)c2ccc(Cl)c(F)c2)n1 [Example 237]
IC50 (BRD4 BD2): 1000 to 10000 nM

CNC(=O)c1cc(C(=O)NC(C)C)n(Cc2ccccc2)n1 [Example 96, 1-Benzyl-N^5-isopropyl-N^3-methyl-1H-pyrazole-3,5-dicarboxamide]
IC50 (BRD4 BD2): 1000 to 10000 nM

CNC(=O)c1cc(C(=O)Nc2c(C)noc2C)n([C@@H](C)c2ccccc2)n1 [Example 248]
IC50 (BRD4 BD2): 1000 to 10000 nM

CNC(=O)c1cc(C(=O)N[C@@H]2C[C@@H](C)[C@H](O)[C@@H](C)C2)n([C@@H](C)c2ccccc2)n1 [Example 236]
IC50 (BRD4 BD2): 1000 to 10000 nM

CNC(=O)c1cc(C(=O)N[C@H]2[C@@H]3C[C@@H](O)C[C@@H]32)n([C@H](C)c2ccc(C(F)(F)F)cc2)n1 [Example 229]
IC50 (BRD4 BD2): 1000 to 10000 nM

CNC(=O)c1cc(C(=O)N[C@H]2C[C@@H]2C)n([C@H](C)c2ccnc3[nH]ccc23)n1 [Example 137, 1-((R)-1-(1H-Pyrrolo[2,3-b]pyridin-4-yl)ethyl)-N^3-methyl-N^5-((1S,2S)-2-methylcyclopropyl)-1H-pyrazole-3,5-dicarboxamide]
IC50 (BRD4 BD2): 1000 to 10000 nM

CNC(=O)c1cc(C(=O)NC(C)(C)C)n([C@@H](C)c2ccccc2)n1 [Example 112, (S)-N^5-(tert-Butyl)-N^3-methyl-1-(1-phenylethyl)-1H-pyrazole-3,5-dicarboxamide]
IC50 (BRD4 BD2): 1000 to 10000 nM

CNC(=O)c1cc(C(=O)N[C@H]2[C@@H]3COC[C@@H]32)n([C@H](C)c2cccc3[nH]ccc23)n1 [Example 132, 1-((R)-1-(1H-Indol-4-yl)ethyl)-N^5-((1R,5S,6r)-3-oxabicyclo[3.1.0]hexan-6-yl)-N^3-methyl-1H-pyrazole-3,5-dicarboxamide]
IC50 (BRD4 BD2): 1000 to 10000 nM

CCNC(=O)c1cc(C(=O)N[C@H]2CC[C@H](O)CC2)n([C@@H](C)c2ccccc2)n1 [Example 108, N^3-Ethyl-N^5-((1r,4S)-4-hydroxycyclohexyl)-1-((S)-1-phenylethyl)-1H-pyrazole-3,5-dicarboxamide]
IC50 (BRD4 BD2): 1000 to 10000 nM

CNC(=O)c1cc(C(=O)N[C@H]2[C@@H]3COC[C@@H]32)n([C@@H](C)c2ccccc2OC)n1 [Example 136, N^5-((1R,5S,6r)-3-Oxabicyclo[3.1.0]hexan-6-yl)-1-((S)-1-(2-methoxyphenyl)ethyl)-N^3-methyl-1H-pyrazole-3,5-dicarboxamide]
IC50 (BRD4 BD2): 1000 to 10000 nM

CNC(=O)c1cc(C(=O)N[C@H]2[C@@H]3COC[C@@H]32)n([C@H](C)c2ccccc2)n1 [Example 109, N^5-((1R,5S,6r)-3-Oxabicyclo[3.1.0]hexan-6-yl)-N^3-methyl-1-((R)-1-phenylethyl)-1H-pyrazole-3,5-dicarboxamide]
IC50 (BRD4 BD2): 1000 to 10000 nM

CNC(=O)c1cc(C(=O)Nc2onc(C)c2C#N)n([C@@H](C)c2ccccc2)n1 [Example 239]
IC50 (BRD4 BD2): 1000 to 10000 nM

CNC(=O)c1cc(C(=O)NC)n(Cc2ccccc2)n1 [Example 94, 1-Benzyl-N^3,N^5-dimethyl-1H-pyrazole-3,5-dicarboxamide]
IC50 (BRD4 BD2): 1000 to 10000 nM

COc1ccc2c(c1)C(c1ccc(Cl)cc1)=N[C@@H](CC(=O)NCCCCCNC(=O)CCCCCC1(C)/C(=C/C=C/C=C/C3=[N+](CCCCS(=O)(=O)O)c4ccc(S(=O)(=O)O)cc4C3(C)C)N(CCCCS(=O)(=O)[O-])c3ccc(S(=O)(=O)O)cc31)c1nnc(C)n1-2 (stereo partly drawn) [Reference Compound X]
reduction in Kd (affinity) of double mutant tandem proteins versus wild type tandem BET proteins [1]: > 1000 fold

CNC(=O)c1cc(C(=O)NC2CC2)n(Cc2ccccc2OC)n1 [Example 106, N^5-Cyclopropyl-1-(2-methoxybenzyl)-N^3-methyl-1H-pyrazole-3,5-dicarboxamide]
IC50 (BRD4 BD2): 1000 to 10000 nM
